Data published in PMC3220188 (Nature Communications, 2010).
Values after ≈ are worked out from the molar mass of the structure shown. Like-named read-outs stand apart in the source and are kept apart here. Marks after values point to notes of the source that are not given here.

Key:
MTB pMV262-rv0577 = assay: microbe, parasite or virus in culture; format: cell-based; conditions: Mycobacterium tuberculosis, read-out: MTB pMV262-rv0577 MIC50
in vivo = format: in vivo, CD-1 female mice; conditions: for fAUC/MIC / fT>MIC: corrected for plasma protein binding; for T>MIC: percentage of dosing interval with plasma levels above MIC
M. tuberculosis H37Rv [1] = assay: microbe, parasite or virus in culture; format: cell-based, Mycobacterium tuberculosis
M. tuberculosis H37Rv [2] = format: cell-based, Mycobacterium tuberculosis; conditions: for ATP pool depleted: in the presence of glycerol, 24 h after treatment; for very rapid ATP depletion in M. tuberculosis: reference compounds, 24 h
in vitro = format: cell-based; conditions: human
M. tuberculosis H37Rv [3] = assay: Metabolomic profiling by LC/MS; format: cell-based, Mycobacterium tuberculosis; conditions: 24 h after treatment, in the presence of glycerol
[4] = test system: Rv0577, Rv0911, Rv2298 and lldD2; format: binding, M. bovis BCG
[5] = female, CD-1, mouse, in vivo, po, 25 mg/kg
[6] = mouse, single oral dose 25 mg kg^−1, lung
[7] = Mycobacterium tuberculosis, H37RV
[8] = Mycobacterium tuberculosis, H37RV, read-out: MTB H37Rv MIC50
[9] = female, CD-1, mouse, in vivo, po, 100 mg/kg

## Cc1ccc(NC(=O)c2ccccc2)cc1Nc1nccn1-c1cc(NC2CCCC2)ncn1 [Compound 1, N-(3-(1-(6-(Cyclopentylamino)pyrimidin-4-yl)-1H-imidazol-2-ylamino)-4-methylphenyl)benzamide]
MTB pMV262-rv0577
  MIC50: 2.32 ± 0.4 µM (≈ 1.05 µg/mL)
In vivo; [5]
  AUC: 23400 ng·h/mL
  Cmax: 4000 ng/mL
  Tmax: 1 h
  bioavailability: 100%
  half-life: 2.5 h
In vivo; mouse, 25 mg kg^−1, lung
  Lung AUC/MIC: 31.2
  Lung T>MIC: 32
In vivo; mouse, 25 mg kg^−1
  fAUC/MIC: 8.6
  fT>MIC: 10%
  T>MIC: 42%
In vivo; [6]
  Lung AUC: 10.2 µg·h/g
M. tuberculosis H37Rv [1]; [7]
  MIC50: 0.75 ± 0.32 µM (≈ 0.34 µg/mL)
M. tuberculosis H37Rv [1]; [8]
  MIC50: 0.35 ± 0.1 µM (≈ 0.159 µg/mL)
M. tuberculosis H37Rv [2]
  ATP pool depleted: > 75%
In vitro
  CC50: > 50 µM
M. tuberculosis H37Rv [3]
  accumulation of glycerol phosphate: significant accumulation

## c1ccc(-c2nc3cc(Nc4nccn4-c4cc(NC5CCCC5)ncn4)ccc3[nH]2)cc1 [Compound 2, N-(1-(6-(Cyclopentylamino)pyrimidin-4-yl)-1H-imidazol-2-yl)-2-phenyl-1H-benzo[d]imidazol-5-amine]
MTB pMV262-rv0577
  MIC50: 3.53 ± 1.13 µM (≈ 1.54 µg/mL)
In vivo; [5]
  AUC: 10600 ng·h/mL
  Cmax: 3800 ng/mL
  Tmax: 0.5 h
  bioavailability: 100%
  half-life: 2.2 h
In vivo; mouse, 25 mg kg^−1, lung
  Lung AUC/MIC: 44.8
  Lung T>MIC: 54
In vivo; mouse, 25 mg kg^−1
  fAUC/MIC: 17.8
  fT>MIC: 26%
  T>MIC: 38%
In vivo; [6]
  Lung AUC: 10.7 µg·h/g
M. tuberculosis H37Rv [1]; [7]
  MIC50: 0.57 ± 0.23 µM (≈ 0.249 µg/mL)
M. tuberculosis H37Rv [1]; [8]
  MIC50: 0.34 ± 0.11 µM (≈ 0.148 µg/mL)
M. tuberculosis H37Rv [2]
  ATP pool depleted: > 75%
In vitro
  CC50: > 50 µM
M. tuberculosis H37Rv [3]
  accumulation of glycerol phosphate: significant accumulation

## Cc1ccc(C(=O)N2CCOCC2)cc1Nc1nccn1-c1cc(NC2CC2)ncn1 [Compound 3, (3-(1-(6-(Cyclopropylamino)pyrimidin-4-yl)-1H-imidazol-2-ylamino)-4-methylphenyl)(morpholino)methanone]
In vivo; [5]
  AUC: 12400 ng·h/mL
  Cmax: 3000 ng/mL
  Tmax: 0.5 h
  bioavailability: 50%
  half-life: 2.3 h
In vivo; [9]
  AUC: 59300 ng·h/mL
  Cmax: 8900 ng/mL
  Tmax: 0.5 h
  bioavailability: 50%
  half-life: 3 h
In vivo; mouse, 25 mg kg^−1, lung
  Lung AUC/MIC: 1070.6
  Lung T>MIC: 100
In vivo; mouse, 25 mg kg^−1
  fAUC/MIC: 113.7
  fT>MIC: 47%
  T>MIC: 73%
In vivo; mouse, 100 mg kg^−1, lung
  Lung T>MIC: 100
In vivo; mouse, 100 mg kg^−1, lung, extrapolated assuming lung exposure proportional to dose
  Lung AUC/MIC: 4654.8 ^*
In vivo; mouse, 100 mg kg^−1
  fAUC/MIC: 544.6
  fT>MIC: 82%
  T>MIC: 100%
In vivo; mouse, 25 and 100 mg kg^−1
  exposure versus dose: proportional to dose
In vivo; [6]
  Lung AUC: 17.5 µg·h/g
M. tuberculosis H37Rv [1]; [7]
  MIC50: 0.036 ± 0.04 µM (≈ 0.0151 µg/mL)
In vitro
  CC50: > 50 µM

## Cc1ccc(NC(=O)c2cccc(NCCN)c2)cc1Nc1nccn1-c1cc(NC2CC2)ncn1 [Compound 4, 3-(2-Aminoethylamino)-N-(3-(1-(6-(cyclopropylamino)pyrimidin-4-yl)-1H-imidazol-2-ylamino)-4-methylphenyl)benzamide]
M. tuberculosis H37Rv [1]; [7]
  MIC50: 0.21 ± 0.01 µM (≈ 0.102 µg/mL)
[4]
  binding of candidate proteins to sepharose-linked 4 in the presence of free 4: dramatically decreased

## O=C(CO)COP(=O)(O)O [DHAP, dihydroxyacetone phosphate]
M. tuberculosis H37Rv [1]
  MIC50: 1200 µM

## CC[C@@H](CO)NCCN[C@@H](CC)CO [EMB, ethambutol, reference compound]
In vivo; [9]
  AUC: 8000 ng·h/mL
  Cmax: 2500 ng/mL
  Tmax: 0.5 h
  half-life: 1.8 h
In vivo; mouse, 100 mg kg^−1, lung
  Lung AUC: 145 µg·h/g
  Lung AUC/MIC: 247
In vivo; mouse, 100 mg kg^−1
  fAUC/MIC: 10
  fT>MIC: 15%
  T>MIC: 17%

## NNC(=O)c1ccncc1 [Isoniazid, isoniazid, reference compound]
MTB pMV262-rv0577
  MIC50: 0.37 ± 0.05 µM (≈ 0.0507 µg/mL)
In vivo; [5]
  AUC: 52000 ng·h/mL
  Cmax: 28000 ng/mL
In vivo; mouse, 25 mg kg^−1
  fT>MIC: 62%
  T>MIC: 68%
In vivo; mouse, single oral dose 25 mg kg^−1, plasma
  Tmax: 0.25 h
M. tuberculosis H37Rv [1]
  activity against M. tuberculosis in the absence of glycerol in the culture medium: comparable
M. tuberculosis H37Rv [1]; [8]
  MIC50: 0.42 ± 0.03 µM (≈ 0.0576 µg/mL)

## [H]/N=C(/N)N[C@H]1[C@H](O)[C@@H](O)[C@H](O[C@@H]2O[C@@H](C)[C@](O)(C=O)[C@H]2O[C@@H]2O[C@@H](CO)[C@H](O)[C@@H](O)[C@@H]2NC)[C@@H](N/C(N)=N\[H])[C@@H]1O [Streptomycin, streptomycin, reference compound]
MTB pMV262-rv0577
  MIC50: 0.12 ± 0.01 µM (≈ 0.0698 µg/mL)
M. tuberculosis H37Rv [1]
  activity against M. tuberculosis in the absence of glycerol in the culture medium: comparable
M. tuberculosis H37Rv [1]; [8]
  MIC50: 0.18 ± 0.02 µM (≈ 0.105 µg/mL)
M. tuberculosis H37Rv [2]
  very rapid ATP depletion in M. tuberculosis: not observed

## O=P(O)(O)OCC(O)CO (centres unmarked) [glycerol phosphate]
M. tuberculosis H37Rv [1]
  MIC50: 12500 µM

## CC(=O)C=O [methylglyoxal]
M. tuberculosis H37Rv [1]
  MIC50: 400 µM (≈ 28.8 µg/mL)

## COc1c(N2C[C@@H]3CCCN[C@@H]3C2)c(F)cc2c(=O)c(C(=O)O)cn(C3CC3)c12 [moxifloxacin, reference compound]
M. tuberculosis H37Rv [1]
  activity against M. tuberculosis in the absence of glycerol in the culture medium: comparable
M. tuberculosis H37Rv [2]
  very rapid ATP depletion in M. tuberculosis: not observed
